We go through 17 molecules from patent US5484934A, “Isothiazole derivatives, a process for production thereof and uses thereof” (Nihon Nohyaku Co., Ltd., priority 1992, dated 1996).

Test [1] relates to Trichoderma viride. In words: Inhibition of hypha growth on malt extract agar, Trichoderma viride. Particulars: read-out: Controlling effect (growth inhibition rate) TRV.
Description: (§1) Each preparation to be tested was added to malt extract agar medium to adjust the concentration to 50 ppm, and the resulting mixture was dispensed into Petri dishes. As an inoculum, a prepared mycerial tuft of each test fungus was punched out together with agar by means of a 4-mm-diameter cork borer and inoculated on medium. The incubation temperature was adjusted to 28±2° .C (or 18±2° C. in the case of Selupula lacrymas).
(§2) The diameter of mycerial tuft was measured 2 to 10 days after the inoculation, and the inhibition rate of hypha growth (the following equation) was measured.
In test [2] the test system is Alternaria mali. In words: Inhibition of hypha growth on malt extract agar, Alternaria mali. Conditions: read-out: Controlling effect (growth inhibition rate) ALM.
Description: as §1, §2
The controlling effect was evaluated according to the following criterion.
Test [3] deals with Serpula lacrymans. The test can be described thus: Inhibition of hypha growth on malt extract agar, Serpula lacrymans. Particulars: read-out: Controlling effect (growth inhibition rate) SEL.
Description: as §1, §2
Test [4] has as its system Chaetomium globosum. In words: Inhibition of hypha growth on malt extract agar, Chaetomium globosum. Conditions: read-out: Controlling effect (growth inhibition rate) CHG.
The subject of test [5] is Cladosporium cladosporioides. In words: Inhibition of hypha growth on malt extract agar, Cladosporium cladosporioides. Conditions: read-out: Controlling effect (growth inhibition rate) CLC.
Description: as §1, §2
Test [6] concerns Aspergillus niger. The test can be described thus: Inhibition of hypha growth on malt extract agar, Aspergillus niger. Conditions: read-out: Controlling effect (growth inhibition rate) ASN.
The test system of test [7] is Tyromyces palustris. The test can be described thus: Inhibition of hypha growth on malt extract agar, Tyromyces palustris. Particulars: read-out: Controlling effect (growth inhibition rate) TYP.
The test system of test [8] is Rhizopus nigricans. The test can be described thus: Inhibition of hypha growth on malt extract agar, Rhizopus nigricans. Particulars: Rhizopus stolonifer, read-out: Controlling effect (growth inhibition rate) RHS.
Description: as §1, §2
Test [9] deals with Fusarium oxysporum. In words: Inhibition of hypha growth on malt extract agar, Fusarium oxysporum. Particulars: read-out: Controlling effect (growth inhibition rate) FUO.
For test [10], the system named is Coriolus versicolor. In words: Inhibition of hypha growth on malt extract agar, Coriolus versicolor. The class given is cell-based. Particulars: Trametes versicolor, 28±2° C., 2 to 10 days, read-out: Controlling effect (growth inhibition rate) COV.

Usually inhibition stands for the drop in the measured response relative to a control, in per cent.

On to `C=CCOc1nsc(S(=O)(=O)c2ccc(C)cc2)c1C#N` [Compound 119], for which the inhibition at 50 ppm is 100% in test [1]; 85 to 99% in [2]; 100% in [3]; 100% in test [4]; 100% in test [5]; 85 to 99% in test [6]. Besides, the inhibition at 50 ppm was 85 to 99% in test [7], 100% in test [8], 85 to 99% in [9] and 100% in test [10].

Regarding `COc1nsc(S(=O)(=O)c2ccc(F)cc2)c1C#N` [Compound 96], the inhibition at 50 ppm in [1], in test [2], in test [3], in test [4], in [5] and in [6] was 100% throughout. Moreover, the inhibition at 50 ppm in test [7], in [8], in [9] and in [10] was 100% each time.

As for `N#Cc1c(OC(F)F)nsc1S(=O)(=O)C1CCCC1` [Compound 30, 3-difluoromethoxy-4-cyano-5-cyclopentylsulfonylisothiazole], the inhibition at 50 ppm is 100% in test [1]; 85 to 99% in test [2]; 85 to 99% in test [3]; 100% in test [4]; 85 to 99% in test [5]; 85 to 99% in test [6]. Also, the inhibition at 50 ppm in test [7] was 100%; in test [8], 100%; in test [9], 85 to 99%; in test [10] it was 100%.

With `CCS(=O)(=O)c1snc(OCC=CCl)c1C#N` [Compound 59], the inhibition at 50 ppm in test [1], in test [2], in test [3], in test [4], in test [5] and in test [6] was 100% throughout. Also, the inhibition at 50 ppm in test [7], in test [8], in test [9] and in test [10] was 100% in each case.

Consider `CC(C)S(=O)(=O)c1snc(OC[Si](C)(C)C)c1C#N` [Compound 77, 3-trimethylsilylmethoxy-4-cyano-5-isopropylsulfonylisothiazole], for which the inhibition at 50 ppm was 100% in [1]; 85 to 99% in test [2]; 100% in test [3]; 100% in test [4]; 85 to 99% in [5]; 85 to 99% in [6]. Besides, the inhibition at 50 ppm in test [7] was 85 to 99%; in [8], 100%; in test [9], 85 to 99%; in [10] it was 100%.

Regarding `CCCOc1nsc(S(C)(=O)=O)c1C#N` [Compound 43], the inhibition at 50 ppm in [1] is 85 to 99%; in test [2], 85 to 99%; in test [3], 100%; in [4] it was 85 to 99%; in test [5], 100%; in [6], 85 to 99%. The inhibition at 50 ppm in test [7] is 100%; in test [8], 100%; in test [9], 85 to 99%; in [10] it was 100%.

Turning to `CC(C)(C)S(=O)(=O)c1snc(OC(F)F)c1C#N` [Compound 29], the inhibition at 50 ppm in [1] was 100%; in [2], 85 to 99%; in test [3], 85 to 99%; in test [4], 100%; in test [5], 85 to 99%; in test [6], 85 to 99%. In addition, the inhibition at 50 ppm in [7] was 100%; in test [8], 100%; in [9] it was 85 to 99%; in test [10], 100%.

`CC(C)(C)c1ccc(S(=O)(=O)c2snc(OC(F)F)c2C#N)cc1` [Compound 117]: the inhibition at 50 ppm is 100% in [1]; 85 to 99% in test [2]; 100% in [3]; 100% in [4]; 85 to 99% in [5]; 100% in test [6]. For the same molecule, the inhibition at 50 ppm in [7] was 85 to 99%; in test [8] it was 100%; in test [9] it was 85 to 99%; in test [10], 100%.

For the molecule `CCOc1nsc(S(=O)(=O)c2ccc(Cl)cc2)c1C#N` [Compound 100], the inhibition at 50 ppm in test [1], in test [2], in [3], in [4], in [5] and in test [6] was 100% in each case. In addition, the inhibition at 50 ppm in test [7], in [8], in test [9] and in test [10] was 100% each time.

Take `COC(=O)COc1nsc(S(=O)(=O)c2ccccc2)c1C#N` [Compound 109]: the inhibition at 50 ppm in test [1], in test [2], in test [3], in test [4], in test [5] and in test [6] was 100% in each case. For the same molecule, the inhibition at 50 ppm in test [7], in test [8], in test [9] and in test [10] was 100% in each case.

Turning to `C=C(C)COc1nsc([S+](C)[O-])c1C#N` (centres unmarked) [Compound 17], the inhibition at 50 ppm in test [1], in test [2], in test [3], in [4], in [5] and in [6] was 100% in each case. Further, the inhibition at 50 ppm in test [7] was 100%; in [8], 100%; in test [9] it was 100%; in test [10], 85 to 99%.

On to `N#Cc1c(OC(F)F)nsc1S(=O)(=O)c1ccc(Cl)cc1` [Compound 111], for which the inhibition at 50 ppm was 100% in test [1]; 100% in test [2]; 85 to 99% in [3]; 100% in test [4]; 100% in test [5]; 100% in [6]. In addition, the inhibition at 50 ppm was 100% in test [7], 100% in [8], 85 to 99% in test [9] and 85 to 99% in test [10].

As to `CC=CCOc1nsc(S(C)(=O)=O)c1C#N` [Compound 57], the inhibition at 50 ppm is 85 to 99% in [1]; 85 to 99% in [2]; 100% in [3]; 85 to 99% in test [4]; 100% in [5]; 85 to 99% in [6]. The inhibition at 50 ppm in test [7] was 100%; in test [8] it was 85 to 99%; in test [9], 100%; in test [10], 100%.

Consider `CCOC(=O)C[S+]([O-])c1snc(OC)c1C#N` (centres unmarked) [Compound 18], for which the inhibition at 50 ppm in test [1] was 100%; in [2], 85 to 99%; in [3] it was 100%; in [4], 100%; in test [5] it was 100%; in test [6], 100%. The inhibition at 50 ppm in test [7] is 100%; in test [8], 100%; in test [9], 85 to 99%; in test [10] it was 100%.

Consider `Cc1ccc(Cl)cc1S(=O)(=O)c1snc(OC(F)F)c1C#N` [Compound 113], for which the inhibition at 50 ppm in [1], in test [2], in test [3], in test [4], in test [5] and in [6] was 100% in each case. Moreover, the inhibition at 50 ppm in [7], in test [8], in test [9] and in [10] was 100% each time.

As for `COc1nsc(S(=O)(=O)c2c(C)cc(C)cc2C)c1C#N` [Compound 97], the inhibition at 50 ppm in test [1] is 100%; in test [2], 100%; in test [3], 100%; in test [4] it was 100%; in test [5], 85 to 99%; in [6] it was 85 to 99%. Besides, the inhibition at 50 ppm in test [7], in test [8], in test [9] and in test [10] was 100% each time.

Turning to `CCC(C)S(=O)(=O)c1snc(OC(F)F)c1C#N` (centres unmarked) [Compound 28, 3-difluoromethoxy-4-cyano-5-s-butylsulfonylisothiazole], the inhibition at 50 ppm is 100% in [1]; 100% in [2]; 100% in [3]; 85 to 99% in test [4]; 85 to 99% in test [5]; 85 to 99% in test [6]. Further, the inhibition at 50 ppm in test [7], in test [8], in test [9] and in [10] was 100% throughout.
